Reference: US11963960B2 (Flash Therapeutics, LLC, priority 2020, dated 2024)
Read-outs that look alike come from different tables or passages of the source.

Molecular target: N-terminally GST-tagged HCK (75-526) (Homo sapiens (Human), UniProt P08631)
Test: HCK Kinase Assay (ProFluor Src-Family Kinase Assay)
Assay type: biochemical
Protocol: The procedure of ProFluor Src-Family Kinase Assay (Promega, Cat. No. V1271) was then followed. To the reaction was added 5 μL Protease solution and the mixture was incubated for 60 minutes at room temperature (22-25° C.), followed by 5 μL Stabilizer solution. The fluorescence signal was read on an Envision multilabel plate reader (Perkin Elmer). The R110 was then read at an excitation wavelength of 485 nm and an emission wavelength of 530 nm. The AMC signal was read at an excitation wavelength of 355 nm and an emission wavelength of 460 nm.

[1] = HCK inhibitory activity, 50 μM ATP, read-out: HCK Activity

Sequence of N-terminally GST-tagged HCK (75-526) (P08631 75-526): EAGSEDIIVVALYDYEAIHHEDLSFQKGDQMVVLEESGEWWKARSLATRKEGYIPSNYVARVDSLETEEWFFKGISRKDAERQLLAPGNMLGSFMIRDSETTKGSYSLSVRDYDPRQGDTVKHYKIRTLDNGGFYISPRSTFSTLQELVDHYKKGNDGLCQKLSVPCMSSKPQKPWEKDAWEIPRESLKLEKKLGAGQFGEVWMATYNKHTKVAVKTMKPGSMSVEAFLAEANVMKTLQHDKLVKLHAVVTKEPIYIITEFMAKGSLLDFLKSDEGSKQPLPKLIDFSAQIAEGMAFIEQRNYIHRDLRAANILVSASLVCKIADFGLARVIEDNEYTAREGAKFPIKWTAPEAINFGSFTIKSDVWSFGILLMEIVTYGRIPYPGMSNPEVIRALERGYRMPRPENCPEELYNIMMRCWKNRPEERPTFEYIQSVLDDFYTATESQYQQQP

| Compound | IC50 [1] | also measured |
| --- | --- | --- |
| Nc1ncnc2c1c(-c1ccc(Oc3ccccc3)cc1)cn2[C@H]1CC[C@@H](N2CCC3(CCNC3)C2)CC1 (relative stereo) [Example 137, 7-((cis)-4-(2,7-diazaspiro[4.4]nonan-2-yl)cyclohexyl)-5-(4-phenoxyphenyl)-7H-pyrrolo[2,3-d]pyrimidin-4-amine] | 50 to 250 nM |  |
| [2H]C([2H])([2H])N1CCN([C@H]2CC[C@H](n3cc(-c4ccc(Oc5ccccc5)cc4)c4c(N)ncnc43)CC2)CC1 (single isomer, unassigned) [Example 3, 7-((trans)-4-(4-(trideuteriomethyl)piperazin-1-yl)cyclohexyl)-5-(4-phenoxyphenyl)-7H-pyrrolo[2,3-d]pyrimidin-4-amine] |  | IC50: < 50 nM |
| [2H]C([2H])([2H])N1CCN([C@H]2CC[C@@H](n3cc(-c4ccc(Oc5ccccc5)cc4)c4c(N)ncnc43)CC2)CC1 (single isomer, unassigned) [Example 4, 7-((cis)-4-(4-(trideuteriomethyl)piperazin-1-yl)cyclohexyl)-5-(4-phenoxyphenyl)-7H-pyrrolo[2,3-d]pyrimidin-4-amine] |  | IC50: 250 to 10000 nM |
| [2H]C([2H])([2H])N1C([2H])([2H])C([2H])([2H])N([C@H]2CC[C@H](n3cc(-c4ccc(Oc5ccccc5)cc4)c4c(N)ncnc43)CC2)C([2H])([2H])C1([2H])[2H] (single isomer, unassigned) [Example 5, 7-((trans)-4-(4-d3-methyl-d8-piperazin-1-yl)cyclohexyl)-5-(4-phenoxyphenyl)-7H-pyrrolo[2,3-d]pyrimidin-4-amine] |  | IC50: 250 to 10000 nM |
| [2H]C([2H])([2H])N1C([2H])([2H])C([2H])([2H])N([C@H]2CC[C@@H](n3cc(-c4ccc(Oc5ccccc5)cc4)c4c(N)ncnc43)CC2)C([2H])([2H])C1([2H])[2H] (single isomer, unassigned) [Example 6, 7-((cis)-4-(4-d3-methyl-d8-piperazin-1-yl)cyclohexyl)-5-(4-phenoxyphenyl)-7H-pyrrolo[2,3-d]pyrimidin-4-amine] |  | IC50: < 50 nM |
| [2H]c1c([2H])c([2H])c(Oc2ccc(-c3cn([C@H]4CC[C@H](N5CCN(C)CC5)CC4)c4ncnc(N)c34)cc2)c([2H])c1[2H] (single isomer, unassigned) [Example 104, 7-((trans)-4-(4-methylpiperazin-1-yl)cyclohexyl)-5-(4-pentadeuteriophenoxyphenyl)-7H-pyrrolo[2,3-d]pyrimidin-4-amine] |  | IC50: < 50 nM |
| CN1CCN([C@H]2CC[C@@H](n3cc(-c4ccc(Oc5ccccc5)cc4)c4c(N)ncnc43)CC2)CC1 [Example 2, 7-((cis)-4-(4-methylpiperazin-1-yl)cyclohexyl)-5-(4-phenoxyphenyl)-7H-pyrrolo[2,3-d]pyrimidin-4-amine] |  | IC50: 50 to 250 nM |
| C[N+]1(C)CCN([C@H]2CC[C@@H](n3nc(-c4ccc(Oc5ccccc5)cc4F)c4c(N)ncnc43)CC2)CC1 [Example 8, 4-((cis)-4-(4-amino-3-(2-fluoro-4-phenoxyphenyl)-1H-pyrazolo[3,4-d]pyrimidin-1-yl)cyclohexyl)-1,1-dimethylpiperazin-1-ium] | 50 to 250 nM |  |
| Nc1ncnc2c1c(-c1ccc(Oc3ccccc3)cc1F)nn2[C@H]1CC[C@@H](N2CCN(CCO)CC2)CC1 [Example 11, 2-(4-((cis)-4-(4-amino-3-(2-fluoro-4-phenoxyphenyl)-1H-pyrazolo[3,4-d]pyrimidin-1-yl)cyclohexyl)piperazin-1-yl)ethanol] | 50 to 250 nM |  |
| C[C@@H]1CN([C@H]2CC[C@H](n3cc(-c4ccc(Oc5ccccc5)cc4)c4c(N)ncnc43)CC2)CCN1 [Example 12, 7-((trans)-4-((R)-3-methylpiperazin-1-yl)cyclohexyl)-5-(4-phenoxyphenyl)-7H-pyrrolo[2,3-d]pyrimidin-4-amine] | 250 to 10000 nM |  |
| C[C@@H]1CN([C@H]2CC[C@@H](n3cc(-c4ccc(Oc5ccccc5)cc4F)c4c(N)ncnc43)CC2)CCN1 [Example 16, 5-(2-fluoro-4-phenoxyphenyl)-7-((cis)-4-((R)-3-methylpiperazin-1-yl)cyclohexyl)-7H-pyrrolo[2,3-d]pyrimidin-4-amine] | 50 to 250 nM |  |
| C[C@@H]1CN([C@H]2CC[C@@H](n3nc(-c4ccc(Oc5ccccc5)cc4F)c4c(N)ncnc43)CC2)CCN1 [Example 18, 3-(2-fluoro-4-phenoxyphenyl)-1-((cis)-4-((R)-3-methylpiperazin-1-yl)cyclohexyl)-1H-pyrazolo[3,4-d]pyrimidin-4-amine] | 250 to 10000 nM |  |

The next lines start with results.

| IC50 [1] | Compound | also measured |
| --- | --- | --- |
| 50 to 250 nM | Nc1ncnc2c1c(-c1ccc(Oc3ccccc3)cc1)cn2[C@H]1CC[C@H](N2CCC3(CCNC3)C2)CC1 (relative stereo) [Example 136, 7-((trans)-4-(2,7-diazaspiro[4.4]nonan-2-yl)cyclohexyl)-5-(4-phenoxyphenyl)-7H-pyrrolo[2,3-d]pyrimidin-4-amine] |  |
| < 50 nM | C[N+]1(C)CCN([C@H]2CC[C@H](n3nc(-c4ccc(Oc5ccccc5)cc4F)c4c(N)ncnc43)CC2)CC1 [Example 7, 4-((trans)-4-(4-amino-3-(2-fluoro-4-phenoxyphenyl)-1H-pyrazolo[3,4-d]pyrimidin-1-yl)cyclohexyl)-1,1-dimethylpiperazin-1-ium] |  |
| < 50 nM | CCN1CCN([C@H]2CC[C@H](n3nc(-c4ccc(Oc5ccccc5)cc4F)c4c(N)ncnc43)CC2)CC1 [Example 9, 1-((trans)-4-(4-ethylpiperazin-1-yl)cyclohexyl)-3-(2-fluoro-4-phenoxyphenyl)-1H-pyrazolo[3,4-d]pyrimidin-4-amine] |  |
| < 50 nM | Nc1ncnc2c1c(-c1ccc(Oc3ccccc3)cc1F)nn2[C@H]1CC[C@H](N2CCN(CCO)CC2)CC1 [Example 10, 2-(4-((trans)-4-(4-amino-3-(2-fluoro-4-phenoxyphenyl)-1H-pyrazolo[3,4-d]pyrimidin-1-yl)cyclohexyl)piperazin-1-yl)ethanol] |  |
| < 50 nM | C[C@@H]1CN([C@H]2CC[C@@H](n3cc(-c4ccc(Oc5ccccc5)cc4)c4c(N)ncnc43)CC2)CCN1 [Example 13, 7-((cis)-4-((R)-3-methylpiperazin-1-yl)cyclohexyl)-5-(4-phenoxyphenyl)-7H-pyrrolo[2,3-d]pyrimidin-4-amine] |  |
| < 50 nM | C[C@@H]1CN([C@H]2CC[C@H](n3nc(-c4ccc(Oc5ccccc5)cc4)c4c(N)ncnc43)CC2)CCN1 [Example 14, 1-((trans)-4-((R)-3-methylpiperazin-1-yl)cyclohexyl)-3-(4-phenoxyphenyl)-1H-pyrazolo[3,4-d]pyrimidin-4-amine] |  |
| < 50 nM | C[C@@H]1CN([C@H]2CC[C@H](n3cc(-c4ccc(Oc5ccccc5)cc4F)c4c(N)ncnc43)CC2)CCN1 [Example 15, 5-(2-fluoro-4-phenoxyphenyl)-7-((trans)-4-((R)-3-methylpiperazin-1-yl)cyclohexyl)-7H-pyrrolo[2,3-d]pyrimidin-4-amine] |  |
| < 50 nM | C[C@@H]1CN([C@H]2CC[C@H](n3nc(-c4ccc(Oc5ccccc5)cc4F)c4c(N)ncnc43)CC2)CCN1 [Example 17, 3-(2-fluoro-4-phenoxyphenyl)-1-((trans)-4-((R)-3-methylpiperazin-1-yl)cyclohexyl)-1H-pyrazolo[3,4-d]pyrimidin-4-amine] | IC50 (50 μM ATP, read-out: HCK IC50): 16.5 nM |
| < 50 nM | C[C@H]1CN([C@H]2CC[C@@H](n3cc(-c4ccc(Oc5ccccc5)cc4)c4c(N)ncnc43)CC2)CCN1 [Example 20, 7-((cis)-4-((S)-3-methylpiperazin-1-yl)cyclohexyl)-5-(4-phenoxyphenyl)-7H-pyrrolo [2,3-d]pyrimidin-4-amine] |  |
